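The concentration for 50% growth inhibition is given as GI50. TGI marks complete inhibition of growth.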
Legend:
Experiment in all cases: growth of human tumour cells (NCI), 384-well format; in the data active = GI50 below about 0.43 µM; inactive = the rest
HL-60(TB) leukemia = test system: HL-60(TB) leukemia
UACC-257 melanoma = test system: UACC-257 melanoma
NCI-H226 lung = test system: NCI-H226 lung
HT29 colon = test system: HT29 colon
MDA-MB-435 melanoma = test system: MDA-MB-435 melanoma
HOP-92 NSCLC = test system: HOP-92 NSCLC
KM12 colon = test system: KM12 colon
OVCAR-8 ovarian = test system: OVCAR-8 ovarian
SK-MEL-2 melanoma = test system: SK-MEL-2 melanoma
MOLT-4 leukemia = test system: MOLT-4 leukemia
HOP-62 NSCLC = test system: HOP-62 NSCLC
NCI/ADR-RES ovarian = test system: NCI/ADR-RES ovarian
RPMI-8226 leukemia = test system: RPMI-8226 leukemia
K-562 leukemia = test system: K-562 leukemia
SK-MEL-5 melanoma = test system: SK-MEL-5 melanoma
TK-10 renal = test system: TK-10 renal
786-0 renal = test system: 786-0 renal
NCI-H322M lung = test system: NCI-H322M lung
EKVX NSCLC = test system: EKVX NSCLC
LOX IMVI melanoma = test system: LOX IMVI melanoma
UACC-62 melanoma = test system: UACC-62 melanoma
COLO 205 colon = test system: COLO 205 colon
IGROV1 ovarian = test system: IGROV1 ovarian
NCI-H460 NSCLC = test system: NCI-H460 NSCLC
A549 NSCLC = test system: A549 NSCLC
SR leukemia = test system: SR leukemia
M14 melanoma = test system: M14 melanoma
MDA-MB-231 breast = test system: MDA-MB-231 breast
NCI-H522 lung = test system: NCI-H522 lung
HCT-15 colon = test system: HCT-15 colon
T-47D breast = test system: T-47D breast
SN12C renal = test system: SN12C renal
SNB-75 CNS = test system: SNB-75 CNS
A498 renal = test system: A498 renal
HCC-2998 colon = test system: HCC-2998 colon
NCI-H23 lung = test system: NCI-H23 lung
MALME-3M melanoma = test system: MALME-3M melanoma
SF-539 CNS = test system: SF-539 CNS
MCF7 breast = test system: MCF7 breast
CAKI-1 renal = test system: CAKI-1 renal
SK-MEL-28 melanoma = test system: SK-MEL-28 melanoma
RXF 393 renal = test system: RXF 393 renal
PC-3 prostate = test system: PC-3 prostate
OVCAR-5 ovarian = test system: OVCAR-5 ovarian
OVCAR-3 ovarian = test system: OVCAR-3 ovarian
SK-OV-3 ovarian = test system: SK-OV-3 ovarian
SNB-19 CNS = test system: SNB-19 CNS
CCRF-CEM leukemia = test system: CCRF-CEM leukemia
HS 578T breast = test system: HS 578T breast
SF-295 CNS = test system: SF-295 CNS
ACHN renal = test system: ACHN renal
U251 glioblastoma = test system: U251 glioblastoma
SW-620 colon = test system: SW-620 colon
DU-145 prostate = test system: DU-145 prostate
OVCAR-4 ovarian = test system: OVCAR-4 ovarian
BT-549 breast = test system: BT-549 breast
HCT-116 colon = test system: HCT-116 colon
SF-268 CNS = test system: SF-268 CNS
MDA-MB-468 breast = test system: MDA-MB-468 breast

COc1ccc(S(=O)(=O)N2CCNCC2)cc1OC
inactive: GI50 (HL-60(TB) leukemia) > 100 µM | GI50 (UACC-257 melanoma) > 100 µM | GI50 (NCI-H226 lung) > 100 µM | GI50 (HT29 colon) > 100 µM | GI50 (MDA-MB-435 melanoma) > 100 µM | GI50 (HOP-92 NSCLC) > 100 µM | GI50 (KM12 colon) > 100 µM | GI50 (OVCAR-8 ovarian) > 100 µM | GI50 (SK-MEL-2 melanoma) > 100 µM | GI50 (MOLT-4 leukemia) > 100 µM | GI50 (HOP-62 NSCLC) > 100 µM | GI50 (NCI/ADR-RES ovarian) > 100 µM | GI50 (RPMI-8226 leukemia) > 100 µM | GI50 (K-562 leukemia) > 100 µM | GI50 (SK-MEL-5 melanoma) > 100 µM | GI50 (TK-10 renal) > 100 µM | GI50 ([…]-0 renal) > 100 µM | GI50 (NCI-H322M lung) > 100 µM | GI50 (EKVX NSCLC) > 100 µM | GI50 (LOX IMVI melanoma) > 100 µM | GI50 (UACC-62 melanoma) > 100 µM | GI50 (COLO 205 colon) > 100 µM | GI50 (IGROV1 ovarian) > 100 µM | GI50 (NCI-H460 NSCLC) > 100 µM | GI50 (A549 NSCLC) > 100 µM | GI50 (SR leukemia) > 100 µM | GI50 (M14 melanoma) > 100 µM | GI50 (MDA-MB-231 breast) > 100 µM | GI50 (NCI-H522 lung) > 100 µM | GI50 (HCT-15 colon) > 100 µM | GI50 (T-47D breast) > 100 µM | GI50 (SN12C renal) > 100 µM | GI50 (SNB-75 CNS) > 100 µM | GI50 (A498 renal) > 100 µM | GI50 (HCC-2998 colon) > 100 µM | GI50 (NCI-H23 lung) > 100 µM | GI50 (MALME-3M melanoma) > 100 µM | GI50 (SF-539 CNS) > 100 µM | GI50 (MCF7 breast) > 100 µM | GI50 (CAKI-1 renal) > 100 µM | GI50 (SK-MEL-28 melanoma) > 100 µM | GI50 (RXF 393 renal) > 100 µM | GI50 (PC-3 prostate) > 100 µM | GI50 (OVCAR-5 ovarian) > 100 µM | GI50 (OVCAR-3 ovarian) > 100 µM | GI50 (SK-OV-3 ovarian) > 100 µM | GI50 (SNB-19 CNS) > 100 µM | GI50 (CCRF-CEM leukemia) > 100 µM | GI50 (HS 578T breast) > 100 µM | GI50 (SF-295 CNS) > 100 µM | GI50 (ACHN renal) > 100 µM | GI50 (U251 glioblastoma) > 100 µM | GI50 (SW-620 colon) > 100 µM | GI50 (DU-145 prostate) > 100 µM | GI50 (OVCAR-4 ovarian) > 100 µM | GI50 (BT-549 breast) > 100 µM | GI50 (HCT-116 colon) > 100 µM | GI50 (SF-268 CNS) > 100 µM | GI50 (MDA-MB-468 breast) > 100 µM
> 100 µM: TGI (HL-60(TB) leukemia) | TGI (UACC-257 melanoma) | TGI (NCI-H226 lung) | TGI (HT29 colon) | TGI (MDA-MB-435 melanoma) | TGI (HOP-92 NSCLC) | TGI (KM12 colon) | TGI (OVCAR-8 ovarian) | TGI (SK-MEL-2 melanoma) | TGI (MOLT-4 leukemia) | TGI (HOP-62 NSCLC) | TGI (NCI/ADR-RES ovarian) | TGI (RPMI-8226 leukemia) | TGI (K-562 leukemia) | TGI (SK-MEL-5 melanoma) | TGI (TK-10 renal) | TGI (786-0 renal) | TGI (NCI-H322M lung) | TGI (EKVX NSCLC) | TGI (LOX IMVI melanoma) | TGI (UACC-62 melanoma) | TGI (COLO 205 colon) | TGI (IGROV1 ovarian) | TGI (NCI-H460 NSCLC) | TGI (A549 NSCLC) | TGI (SR leukemia) | TGI (M14 melanoma) | TGI (MDA-MB-231 breast) | TGI (NCI-H522 lung) | TGI (HCT-15 colon) | TGI (T-47D breast) | TGI (SN12C renal) | TGI (SNB-75 CNS) | TGI (A498 renal) | TGI (HCC-2998 colon) | TGI (NCI-H23 lung) | TGI (MALME-3M melanoma) | TGI (SF-539 CNS) | TGI (MCF7 breast) | TGI (CAKI-1 renal) | TGI (SK-MEL-28 melanoma) | TGI (RXF 393 renal) | TGI (PC-3 prostate) | TGI (OVCAR-5 ovarian) | TGI (OVCAR-3 ovarian) | TGI (SK-OV-3 ovarian) | TGI (SNB-19 CNS) | TGI (CCRF-CEM leukemia) | TGI (HS 578T breast) | TGI (SF-295 CNS) | TGI (ACHN renal) | TGI (U251 glioblastoma) | TGI (SW-620 colon) | TGI (DU-145 prostate) | TGI (OVCAR-4 ovarian) | TGI (BT-549 breast) | TGI (HCT-116 colon) | TGI (SF-268 CNS) | TGI (MDA-MB-468 breast)

Source: PubChem BioAssay (NCI)
